Read-outs that look alike come from different tables or passages of the source.
Assays:
human orexin 2 receptor = target: T1, human orexin 2 receptor (Homo sapiens, UniProt O43614); format: cell-based
T1 sequence (O43614 1-444): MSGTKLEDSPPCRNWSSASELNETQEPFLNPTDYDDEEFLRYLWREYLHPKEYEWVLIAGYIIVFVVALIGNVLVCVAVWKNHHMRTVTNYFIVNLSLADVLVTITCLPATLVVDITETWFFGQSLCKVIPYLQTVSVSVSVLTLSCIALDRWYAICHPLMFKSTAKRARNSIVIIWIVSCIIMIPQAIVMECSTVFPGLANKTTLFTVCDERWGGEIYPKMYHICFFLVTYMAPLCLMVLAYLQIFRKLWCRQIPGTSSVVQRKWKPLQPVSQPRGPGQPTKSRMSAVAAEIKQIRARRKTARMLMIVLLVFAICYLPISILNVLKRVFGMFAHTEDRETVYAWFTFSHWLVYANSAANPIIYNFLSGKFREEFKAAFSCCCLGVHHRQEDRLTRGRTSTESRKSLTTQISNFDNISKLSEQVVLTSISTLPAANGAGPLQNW
Excerpt: Chem. Genomics 2009, 3, 22-32.

[1] = Assay C: metabolic stability in human liver microsomes (human MST); format: in vitro ADME; settings: pooled human liver microsomes, pH 7.6, 1 µM test compound, 37°C
Excerpt: Stability in human liver microsomes refers to the susceptibility of compounds to biotransformation in the context of selecting and/or designing drugs with favorable pharmacokinetic properties. The primary site of metabolism for many drugs is the liver. Human liver microsomes contain the cytochrome P450s (CYPs), and thus represent a model system for studying drug metabolization in vitro. Enhanced stability in human liver microsomes is associated with several advantages, including increased bioavailability and longer half-life, which can enable lower and less frequent dosing of patients. Thus, enhanced stability in human liver microsomes is a favorable characteristic for compounds that are to be used for drugs.
The metabolic stability of the compounds according to the invention may be investigated as follows: The metabolic degradation of the test compound is assayed at 37°C with pooled human liver microsomes. The final incubation volume of 100 µL per time point contains TRIS buffer pH 7.6 at room temperature (0.1 M), MgCl2 (5 mM), microsomal protein (1 mg/mL) and the test compound at a final concentration of 1 µM. Following a short pre-incubation period at 37°C , the reactions are initiated by addition of beta-nicotinamide adenine dinucleotide phosphate, reduced form (NADPH, 1 mM), and terminated by transferring an aliquot into solvent after different time points. After centrifugation (10000 g, 5 min), an aliquot of the supernatant is assayed by LC-MS/MS for the amount of parent compound. The half-life (t1/2) is determined by the slope of the semi-logarithmic plot of the concentration-time profile.

human MDR1 P-gp = target: T2, human MDR1 P-gp (Homo sapiens, UniProt P08183); experiment: Assay D: efflux in MDCK cells transfected with the human MDR1 gene; format: in vitro ADME; settings: MDCK-MDR1 monolayers, pH 7.4, 37°C
T2 construct: expressed in transfected cells; host or cells: MDCK (MDCK-MDR1)
T2 sequence (P08183 whole entry): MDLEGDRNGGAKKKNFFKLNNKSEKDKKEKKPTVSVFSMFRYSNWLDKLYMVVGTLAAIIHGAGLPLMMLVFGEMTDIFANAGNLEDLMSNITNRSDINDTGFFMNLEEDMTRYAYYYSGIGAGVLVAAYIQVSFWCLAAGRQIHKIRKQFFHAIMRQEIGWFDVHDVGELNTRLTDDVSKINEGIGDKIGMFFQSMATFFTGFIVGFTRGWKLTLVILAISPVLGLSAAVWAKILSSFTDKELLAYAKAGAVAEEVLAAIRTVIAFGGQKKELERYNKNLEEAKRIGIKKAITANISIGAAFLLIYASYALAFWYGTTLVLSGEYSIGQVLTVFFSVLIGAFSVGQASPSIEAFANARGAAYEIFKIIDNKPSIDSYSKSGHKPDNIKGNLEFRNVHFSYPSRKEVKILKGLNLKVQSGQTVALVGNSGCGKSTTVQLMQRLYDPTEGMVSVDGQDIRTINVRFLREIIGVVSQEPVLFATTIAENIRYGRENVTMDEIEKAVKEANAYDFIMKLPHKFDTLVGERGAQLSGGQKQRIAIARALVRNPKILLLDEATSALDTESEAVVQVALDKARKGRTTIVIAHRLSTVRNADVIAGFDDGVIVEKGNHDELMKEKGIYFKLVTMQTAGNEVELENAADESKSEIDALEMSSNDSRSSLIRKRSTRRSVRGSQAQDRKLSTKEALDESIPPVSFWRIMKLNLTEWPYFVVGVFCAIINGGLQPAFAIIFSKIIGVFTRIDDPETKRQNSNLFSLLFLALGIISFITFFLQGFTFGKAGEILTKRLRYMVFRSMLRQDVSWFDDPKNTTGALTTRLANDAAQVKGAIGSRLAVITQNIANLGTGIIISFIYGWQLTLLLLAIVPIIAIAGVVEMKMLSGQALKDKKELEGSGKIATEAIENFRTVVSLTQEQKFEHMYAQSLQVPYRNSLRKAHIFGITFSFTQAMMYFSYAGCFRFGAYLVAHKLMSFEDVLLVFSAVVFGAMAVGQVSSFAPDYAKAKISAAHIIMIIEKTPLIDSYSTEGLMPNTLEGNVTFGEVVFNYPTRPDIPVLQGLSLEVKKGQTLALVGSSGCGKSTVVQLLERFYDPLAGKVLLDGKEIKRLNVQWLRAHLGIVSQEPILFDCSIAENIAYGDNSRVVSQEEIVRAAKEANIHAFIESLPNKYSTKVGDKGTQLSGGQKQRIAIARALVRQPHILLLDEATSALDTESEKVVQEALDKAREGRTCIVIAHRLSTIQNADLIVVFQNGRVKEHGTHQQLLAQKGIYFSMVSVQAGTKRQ
Experimental: The MDCK assay provides information on the potential of a compound to pass the blood brain barrier. Permeability measurements across polarized, confluent MDCK-MDR1 cell monolayers grown on permeable filter supports are used as an in vitro absorption model: apparent permeability coefficients (PE) of the compounds across the MDCK-MDR1 cell monolayers are measured (pH 7.4, 37°C) in apical-to-basal (AB) and basal-to-apical (BA) transport direction. The AB permeability (PEAB) represents drug absorption from the blood into the brain and the BA permeability (PEBA) drug efflux from the brain back into the blood via both, passive permeability as well as active transport mechanisms mediated by efflux and uptake transporters that are expressed on the MDCK-MDR1 cells, predominantly by the overexpressed human MDR1 P-gp. Identical or similar permeabilities in both transport directions indicate passive permeation, vectorial permeability points to additional active transport mechanisms. Higher PEBA than PEAB (PEBA/PEAB > 5) indicates the involvement of active efflux mediated by MDR1 P-gp, which might compromises the goal to achieve sufficient brain exposure. Therefore this assay provides valuable support for selection of compounds applicable for further in vivo testing. High permeability not limited by efflux at the blood brain barrier is a favourable characteristic for compounds that are to be used for drugs acting primarily in the CNS
Apparent permeability coefficients (PE) of the compounds across the MDCK-MDR1 cell monolayers are measured (pH 7.4, 37°C) in apical-to-basal (AB) and basal-to-apical (BA) transport direction. AB permeability (PEAB) represents drug absorption from the blood into the brain and BA permeability (PEBA) drug efflux from the brain back into the blood via both passive permeability as well as active transport mechanisms mediated by efflux and uptake transporters that are expressed on the MDCK-MDR1 cells, predominantly by the overexpressed human MDR1 P-gp. The compounds are assigned to permeability/absorption classes by comparison of the AB permeabilities with the AB permeabilities of reference compounds with known in vitro permeability and oral absorption in the human. Identical or similar permeabilities in both transport directions indicate passive permeation, vectorial permeability points to additional active transport mechanisms. Higher PEBA than PEAB indicates the involvement of active efflux mediated by MDR1 P-gp. Active transport is concentration- dependently saturable.
MDCK-MDR1 cells (1-2 x 10e5 cells/1 cm2 area) are seeded on filter inserts (Costar transwell polycarbonate or PET filters, 0.4 µm pore size) and cultured (DMEM) for 7 days. Subsequently, the MDR1 expression is boosted by culturing the cells with 5 mM sodium butyrate in full medium for 2 days. Compounds are dissolved in appropriate solvent (like DMSO, 1 -20 mM stock solutions). Stock solutions are diluted with HTP-4 buffer (128.13 mM NaCl, 5.36 mM KCI, 1 mM MgSO4, 1.8 mM CaCl2, 4.17 mM NaHCO3, 1.19 mM Na2HPO4 x 7H2O, 0.41 mM NaH2PO4xH2O, 15 mM HEPES, 20 mM glucose, 0.25 % BSA, pH 7.4) to prepare the transport solutions (0.1 - 300 µM compound, final DMSO <= 0.5 %). The transport solution (TL) is applied to the apical or basolateral donor side for measuring A-B or B-A permeability (3 filter replicates), respectively. The receiver side contains the same buffer as the donor side. Samples are collected at the start and end of experiment from the donor and at various time intervals for up to 2 hours also from the receiver side for concentration measurement by HPLC-MS/MS or scintillation counting. Sampled receiver volumes are replaced with fresh receiver solution.

OX2R = target: T3, OX2R (Homo sapiens, UniProt O43614); settings: cited from earlier work; for OX2R pIC50: Table 3 of WO2016/034882; for IC50: corresponds to pIC50 of Table 3 of WO2016/034882
T3 sequence (O43614 1-444): T1 sequence (O43614 1-444)

[2] = read-out: Assay C: Human MST t1/2
[3] = read-out: Assay D:MDCK efflux ratio (BA/AB)
[4] = read-out: Data as determined in Assay C: Human MST t1/2

| SMILES | Kb (human orexin 2 receptor; 0.5 nM Orexin A) [nM] | half-life at 1 µM [1, 2] [h] | efflux ratio (human MDR1 P-gp; [3]) | other results |
| --- | --- | --- | --- | --- |
| CCN(C(=O)c1cc(F)ccc1-n1nccn1)[C@@H](C)CNc1ncc(C(F)(F)F)cn1 [Example 5] | 35.3 | 2 | < 3 | – |
| CCN(C(=O)c1cc(C#N)ccc1-n1nccn1)[C@@H](C)CNc1ncc(C(F)(F)F)cn1 [Example 8] | 33.4 | > 2 | 3 to 5 | – |
| CCN(C(=O)c1c(F)cccc1-c1ncccn1)[C@@H](C)CNc1ncc(C(F)(F)F)cn1 [Example 13] | 62 | > 2 | < 3 | – |
| CCN(C(=O)c1ncccc1-c1ccccc1)[C@@H](C)CNc1ncc(C(F)(F)F)cn1 [Example 19] | 12.5 | > 2 | < 3 | – |
| CCN(C(=O)c1cc(F)cnc1-n1nccn1)[C@@H](C)CNc1ncc(C(F)(F)F)cn1 [Example 10] | 1060 | > 2 | < 3 | – |
| CCN(C(=O)c1c(F)cccc1-n1nccn1)[C@@H](C)CNc1ncc(C(F)(F)F)cn1 [Example 7] | 33.4 | 1.27 | < 3 | – |
| C[C@@H](CNc1ccc(Cl)cn1)N(C)C(=O)c1ccccc1-c1ccccc1 [Example 14 in WO2016/034882, reference compound] | – | 0.0333 | – | – |
| CCN(C(=O)c1cc(F)ccc1-c1ncccn1)[C@@H](C)CNc1ncc(C(F)(F)F)cn1 [Example 15] | 22.9 | > 2 | < 3 | – |
| CC[C@@H](CNc1ncc(C(F)(F)F)cn1)N(CC)C(=O)c1nc(C)ccc1-n1nccn1 [Example 73 in WO2016/034882] | – | 0.183 | – | OX2R pIC50 (OX2R): < 6.0; IC50 (OX2R): > 1000 nM |
| Cc1nc(C(=O)N(C)CCNc2ncc(Br)cn2)c(-c2ccc(F)cc2)s1 [Example 6 in WO03/051872, reference compound] | – | 0.133 | – | Kb (human orexin 2 receptor; 0.5 nM Orexin A concentration, read-out: Assay B: OX2R Kb): 101 nM; efflux ratio (human MDR1 P-gp; read-out: Assay D: MDCK efflux ratio (BA/AB)): 0.8 |
| CCN(C(=O)c1ccc(F)cc1-c1nnc(C)o1)[C@@H](C)CNc1cnc(C(F)(F)F)cn1 [Example 23] | 222 | > 2 | 3 to 5 | – |
| CCN(C(=O)c1nc(C)ccc1-n1cccn1)[C@@H](C)CNc1ncc(C(F)(F)F)cn1 [Example 12] | 129 | 1.08 | < 3 | – |
| CCN(C(=O)c1ccccc1-c1noc(C)n1)[C@@H](C)CNc1ncc(C(F)(F)F)cn1 [Example 14] | 44 | 1.52 | < 3 | – |
| CCN(C(=O)c1cncnc1-c1ccccc1)[C@@H](C)CNc1ncc(C(F)(F)F)cn1 [Example 20] | 68 | 0.717 to 1.67 | < 3 | – |
| CCN(C(=O)c1nccnc1-c1ccccc1)[C@@H](C)CNc1ncc(C(F)(F)F)cn1 [Example 21] | 55.9 | > 2 | < 3 | – |
| CCN(C(=O)c1ccccc1-n1nccn1)[C@@H](C)CNc1cnc(C(F)(F)F)cn1 [Example 22] | 7.37 | > 2 | 3 to 5 | – |
| CC[C@@H](CNc1ncc(C(F)(F)F)cn1)N(C)C(=O)c1nc(C)ccc1-c1ncccn1 [Example 84 in WO2016/034882] | – | 0.683 | < 3 | OX2R pIC50 (OX2R): 6.0; IC50 (OX2R): 1000 nM |
| CCN(C(=O)c1cc(F)ccc1-c1ncccn1)[C@@H](C)Cn1nnc(-c2ccc(F)cc2)n1 [Example 70 in WO2013/187466, reference compound] | – | – | – | half-life at 1 µM [1, 4]: 0.267 h |
| CCN(C(=O)c1cccc(F)c1-c1ncccn1)[C@@H](C)CNc1ncc(C(F)(F)F)cn1 [Example 11] | 19.3 | > 2 | 3 to 5 | – |
| CCN(C(=O)c1ccc(F)cc1-c1ncccn1)[C@@H](C)CNc1ncc(C(F)(F)F)cn1 [Example 16] | 76.8 | 1.67 | < 3 | – |
| CCN(C(=O)c1nc(C)ccc1-c1ncccn1)[C@@H](C)Cn1nnc(-c2ccc(F)cc2)n1 [Example 69 in WO2013/187466, reference compound] | – | – | – | half-life at 1 µM [1, 4]: 0.383 h |
| CCN(C(=O)c1cccc(F)c1-n1nccn1)[C@@H](C)CNc1cnc(C(F)(F)F)cn1 [Example 24] | 10 | 1.02 | 3 to 5 | – |
| CCN(C(=O)c1ccc(F)cc1-n1nccn1)[C@@H](C)CNc1ncc(C(F)(F)F)cn1 [Example 2] | 64.5 | 0.717 | < 3 | – |
| CCN(C(=O)c1ccc(F)c(F)c1-n1nccn1)[C@@H](C)CNc1ncc(C(F)(F)F)cn1 [Example 4] | 46.9 | 1.58 | < 3 | – |

Source: EP3442964B1, “NOVEL N-[(PYRIMIDINYLAMINO)PROPANYL]-AND N [(PYRAZINYLAMINO)PROPANYL]ARYLCARBOXAMIDES” (Boehringer Ingelheim International GmbH, priority 2016, dated 2017)
